Experimental data as given in patent US20240197682A1, “METHOD FOR TREATING NEUROLOGICAL DISEASES USING SUPRAMOLECULE POLYMER THERAPEUTICS” (The Regents of the University of California, priority 2022, published 2024).
Read-outs that look alike come from different tables or passages of the source.

What was measured:
[1] = Parallel Artificial Membrane Permeability Assay (PAMPA); assay type: in vitro ADME; details: for Papp at 4 hr, 200 uM: PAMPA, read-out: PAMPA: P_app; for PAMPA: P_app: 200 uM test compound, 4 hr
Protocol: 5 uL of 1% lecithin (VWR 0579) dissolved in n-dodecane (Sigma Aldrich D221104) was applied to each well of a MultiScreen IP PAMPA filter plate (Millipore MAIPSWU10) and allowed to equilibrate for 5 minutes. 300 uL of PBS was added to the acceptor plate and 150 uL of 200 uM test compound dissolved in PBS and 30% ethanol was added to the donor wells before incubating the donor plate in the acceptor plate for 4 hr at 500 rpm. 100 uL was sampled from the donor and acceptor wells and the concentrations were measured by liquid chromatography-mass spectrometry (SCIEX 4500) or UV-VIS plate reader (BMG).

[2] = biological target: T1, YFP-tagged full length 0N4R-Tau P301S aggregates seeded by 416-AD11A lysate (T24 cells) (Homo sapiens, UniProt P10636, P618S); experiment: Tau-AD high throughput screening (counter screen) in T24 cells; assay type: cell-based; details: T24 cells transfected with 416-AD11A lysate
T1 construct: C-terminally YFP-tagged full length 0N4R-Tau carrying a P301S mutation; expressed in transfected cells
Protocol: A fragment of the Middle Tempral Gyrus (MTG) from Alzheimer's Disease (AD) patient 2217 was resuspended in 9 volumes of PBS (ml/g of brain) and homogenized 3×12 seconds using a probe homogenizer (Thomas Scientific) with disposable Omni Tip plastic homogenizing probes (Thomas Scinetific Cat No 3409Y77) to generate a 10% brain homogenate (10% AD11-BH). The 10% AD11-BH was clarified of insoluble debris by centrifugation at 800×g for 5 minutes. The resulting supernatant was collected and the protein concentration of this clarified BH (AD11-CBH) was determined by bicinchoninic acid assay (BCA) (Thermo Fisher Cat No. 23227). HEK293 cells stably expressing a C-terminally Clover-tagged truncated 4R-Tau^243-382 transgene containing the P301L and V337M mutations and a C-terminally Ruby-tagged truncated 3R-Tau^243-382 transgene containing the L266V and V337M mutations (128/139 cells) were transfected with the AD11-CBH using lipofectamine 2000 (LF2K) (Thermo Fisher Cat No. 11668500). Briefly, 0.32 μl of LF2K were diluted in 5 μl Opti-MEM (Thermo Scientific Cat No 31985070) per well of a 384-well plate and incubated for 5 min at room temperature (RT). This mixture was added to 0.32 μg of AD11-CBH diluted in 5 μl of PBS per well of a 384-well plate and vortex briefly. The transfection mixture was incubated at room temperature for 90 min. The transfection complexes were subsequently added to a single well of a 384-well plate containing 3500 128/139 cells. After 3 days the cells were harvested, counted and plated at a density of 1 cell/well in a 96-well plate. A clonal cell line containing Clover and Ruby positive Tau aggregates was selected and termed 416-AD11A cells. Following the expansion of these 416-AD11A cells, a cell lysate was prepared by freeze/thaw. The cells from a confluent T175 flask were harvested in 1 ml of PBS containing 1× protease inhibitor cocktail by scraping. The cell suspension was subjected to 4 cycles of freezing in liquid nitrogen for 5 minutes followed by thawing at 37° C. for 5 minutes. The resulting cell lysate was centrifuged at 2000 RPM for 10 minutes to remove the cell debris and the protein concentration of the resulting 416-AD11A lysate was determined by BCA assay and aliquots frozen for future use.
HEK293 cells stably expressing C-terminally YFP-tagged full length 0N4R-Tau carrying a P301S mutation (T24 cells) are plated at a density of 4000 cells per well of a 384-well black walled, clear bottom plate (Greiner Cat No 5678-1091Q) in 60 μl of complete DMEM (DMEM (Corning Cat No 10-013-CV), 10% FBS (VWR Cat No 97068-085, 0.5% Penicilin/streptomycin (Gibco Cat No 15140-122)) containing 0.1 μg/ml Hoechst Dye (Thermo Scientific Cat No H3570). Transfection complexes are prepared by diluting 0.15 μg of 416-AD11A lysate or HEK lysate in 5 μl of PBS per well to be transfected and 0.15 μl of Lipofectamine 2000 (LF2K) (ThermoFisher Cat No 11668500) in 5 μl of Opti-MEM per well to be transfected in separate tubes. The pre-diluted 416-AD11A or HEK lysates and LF2K are subsequently mixed and allowed to incubate for 90 minutes at RT. A 10 μl aliquot of the 416-AD11A or HEK transfection complexes is added to the appropriate wells of the 384-well plate containing the T24 cells using the Bravo liquid handling platform (Agilent). Wells A23-P24 of the 384-well plate are transfected with HEK lysate to act as a reference point for spontaneous aggregation of 0N4R^P301S and for transfection related toxicity. The dilution of test compounds is performed using the Bravo liquid handling platform (Agilent). The control is DMSO in the absence of any test compound. Briefly, 1 μl of each test compound (5 mM stock) in the 384-well test plate was transferred to a 384-well plate (Greiner Cat No 781280) containing 61.5 μl of complete DMEM to generate a working stock of compounds at 80 μM. […]

T1 sequence (P10636 1-383 isoform P10636-6 P243S): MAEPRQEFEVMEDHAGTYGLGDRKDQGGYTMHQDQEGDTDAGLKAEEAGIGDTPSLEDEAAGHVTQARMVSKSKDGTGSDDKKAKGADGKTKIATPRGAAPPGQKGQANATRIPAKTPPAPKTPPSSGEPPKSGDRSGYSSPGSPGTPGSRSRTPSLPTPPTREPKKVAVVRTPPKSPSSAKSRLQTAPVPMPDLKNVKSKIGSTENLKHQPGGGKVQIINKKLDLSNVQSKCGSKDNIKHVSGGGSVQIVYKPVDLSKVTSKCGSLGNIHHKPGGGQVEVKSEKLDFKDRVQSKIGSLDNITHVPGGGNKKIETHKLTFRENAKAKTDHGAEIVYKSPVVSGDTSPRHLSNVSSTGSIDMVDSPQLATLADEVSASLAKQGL

Papp at 4 hr, 200 uM ([1]; pH 5.0, 200 uM test compound) [×10⁻⁶ cm/s] | Papp at 4 hr, 200 uM ([1]; pH 7.4, 200 uM test compound) [×10⁻⁶ cm/s] | AD Tau Aggregates (% control) [2] [% control] | PAMPA: P_app ([1]; pH 7.4) [×10e−6 cm/sec] | PAMPA: P_app ([1]; pH 5.0) [×10e−6 cm/sec] | SMILES
16.9 | 11.2 | 100 |  |  | O=C(Cn1cc(-c2ccoc2)c(=O)c2ccc(N3CCCC3)cc21)Nc1ccccc1C(F)(F)F [Compound 149, 2-[3-(furan-3-yl)-4-oxo-7-(pyrrolidin-1-yl)-1,4-dihydroquinolin-1-yl]-N-[2-(trifluoromethyl)phenyl]acetamide]
 |  | 95 | 2.41 |  | Cc1ccnn1-c1nc(-n2cc3ccn(C(F)(F)F)c3nc2=O)c(-c2ccc(F)cc2)o1 [Compound 240]
 |  | 98 | 1.36 |  | Cc1ccn(-c2nc(-n3cc4ccn(C(F)(F)F)c4nc3=O)c(-c3ccc(F)cc3)o2)n1 [Compound 241]
 |  | 99 | 5.72 |  | O=c1nc2c(ccn2C(F)(F)F)cn1-c1nc(N2Cc3ccccc3C2)oc1-c1ccc(F)cc1 [Compound 242]
 |  | 100 | 45 | >50 | CNC(=O)c1ncc2c(-c3ccccc3Cl)nn(-c3ccc(F)cc3)c2n1 [Compound 244]
 |  | 120 | >50 | >50 | CCc1ccccc1-c1nn(-c2ccc(F)cc2)c2nc(C(=O)NC)ncc12 [Compound 245]
 |  | 120 | >50 | >50 | CNC(=O)c1ncc2c(-c3ccccc3)nn(-c3ccc(F)cc3)c2n1 [Compound 246]
 |  | 95 | >50 | 46.6 | CNC(=O)c1ncc2c(-c3ccccc3)nn(Cc3ccccc3)c2n1 [Compound 248]
> 50 |  | 100 | >50 |  | CNC(=O)c1ncc2c(-c3cc4ccccc4cn3)nn(Cc3ccccc3)c2n1 [Compound 256, 1-benzyl-3-(isoquinolin-3-yl)-N-methyl-1H-pyrazolo[3,4-d]pyrimidine-6-carboxamide]
 |  | 110 |  |  | CNC(=O)c1ncc2c(-c3ccc(F)cc3)nn(CC3CCCCC3)c2n1 [Compound 258]
 |  | 99 |  |  | CNC(=O)c1ncc2c(-c3ccc(F)cc3)nn(Cc3ccnc(F)c3)c2n1 [Compound 259]
 |  | 95 |  |  | CNC(=O)c1ncc2c(-c3ccc(F)cc3)nn(Cc3cccc(F)c3)c2n1 [Compound 260]
 |  | 87 |  |  | CNC(=O)c1ncc2c(-c3ccc(F)cc3)nn(Cc3ccc(F)cc3)c2n1 [Compound 261]
 |  | 110 |  |  | CC(=O)Nc1ncc2c(-c3ccccc3)nn(C(C)c3ccccc3)c2n1 (stereo not shown) [Compound 265]
 |  | 98 | >50 | >50 | CC(=O)Nc1ncc2c(-c3ccccc3C)nn(Cc3ccccc3)c2n1 [Compound 266]
 |  | 91 | 5.98 |  | CC(=O)Nc1ncc2c(-c3ccccc3)nn(Cc3cncc(F)c3)c2n1 [Compound 267]
 |  | 105 |  |  | CC(=O)Nc1ncc2c(-c3ccccc3C#N)nn(Cc3ccccc3)c2n1 [Compound 268]
 |  | 100 | 26.7 | 19.1 | CCC(=O)Nc1ncc2c(-c3ccccc3)nn(Cc3ccc(OC)cc3)c2n1 [Compound 269]
 |  | 100 |  |  | CNc1ncc2c(-c3ccccc3)nn(-c3ccccc3)c2n1 [Compound 286, N-methyl-1,3-diphenyl-1H-pyrazolo[3,4-d]pyrimidin-6-amine]
 |  | 110 |  |  | CNC(=O)c1ncc2c(-c3ccccc3)cn(-c3ccccc3)c2n1 [Compound 291, N-methyl-5,7-diphenyl-7H-pyrrolo[2,3-d]pyrimidine-2-carboxamide]
